How the values were obtained:
[1] = tested on: MTX-naïve adult patients with early RA (<3 years); assay: Study J: HAQ DI; type: in vivo, human; settings: for HAQ DI mean change from baseline: LOCF
Excerpt: The Health Assessment Questionnaire Disability Index (HAQ DI) is a disease-specific tool that measures patient-reported physical function in 8 categories corresponding to normal activities in daily living. Fatigue is an important yet still often overlooked systemic symptom of RA. The Functional Assessment of Chronic Illness Therapy-Fatigue (FACIT-F) tool, measured by a 13-item, validated scale, assesses the impact of a disease and its therapy on fatigue.
Study J is described in detail in the above examples. The Health Assessment Questionnaire Disability Index (HAQ DI) and Functional Assessment of Chronic Illness Therapy-Fatigue (FACIT-F) were assessed at baseline, and following 12, 26, 42, 52, 76, and 104 weeks of therapy. Changes in scores were computed by subtracting the baseline from post-treatment score for each patient; mean changes were reported for each treatment group. The HAQ DI is assessed on a scale of 0-3, with higher numbers indicating greater disability. The minimum clinically important difference (MCID) is defined as changes ≧0.22 (Goldsmith C H, et al. J Rheumatol 1993; 20-561-5). The FACIT-F is assessed on a scale of 0-52, with higher scores indicating less fatigue. Changes of ≧4 are considered clinically meaningful (Cella D, et al. J Pain Symptom Manage 2002:24:547-61).

[2] = tested on: patients with long-standing RA; assay: Study I open-label extension: HAQ; type: in vivo, human; settings: 5 years
Method: Demographic data, age, gender, disease duration, rheumatoid factor and changes in TJC, SJC, CRP, DAS28, HAQ and ACR responses were analysed. Baseline demographics and disease characteristics as well as efficacy measures at last visit (ACR 20/50/70, DAS28, HAQ) were compared between the groups. All patients, including those who discontinued from the trial, were evaluated
Patients were eligible to enroll in Study I if they met ACR criteria for diagnosis of RA. […] Efficacy outcomes were assessed at pre-specified intervals as observed data. Treatment time was calculated beginning with the first subcutaneous injection of adalimumab at any dose, excluding time on placebo. Improvements in signs and symptoms of RA were evaluated for ACR20, ACR50, and ACR70 criteria, 28-joint count Disease Activity Score (DAS28) using the CRP-based formula, and Health Assessment Questionnaire (HAQ). Patients with changes in dosage of MTX or corticosteroids were evaluated for at least 6 months; these patients were eligible for the extension study for at least 6 months and were eligible for discretionary dose tapering. Patients were monitored for adverse events (AEs) during the entire length of the study, from signed informed consent through last visit.

Compound	HAQ DI mean score ([1]; Baseline)	HAQ DI mean change from baseline ([1]; ΔWeek 12)	HAQ DI mean change from baseline ([1]; ΔWeek 26)	HAQ DI mean change from baseline ([1]; ΔWeek 42)	HAQ DI mean change from baseline ([1]; ΔWeek 52)	HAQ DI mean change from baseline ([1]; ΔWeek 76)	HAQ DI mean change from baseline ([1]; ΔWeek 104)	patients with no physical limitations (HAQ=0) [2] [%]
CN(Cc1cnc2nc(N)nc(N)c2n1)c1ccc(C(=O)N[C@@H](CCC(=O)O)C(=O)O)cc1 [mtx alone, methotrexate]	1.48	−0.53	−0.67	−0.68	−0.69	−0.68	−0.68	–
adalimumab: human anti-TNF mAb (HUMIRA, Abbott Laboratories), described in U.S. Pat. No. 6,090,382 as D2E7	–	–	–	–	–	–	–	28

From US20120171123A1, “USES AND COMPOSITIONS FOR TREATMENT OF RHEUMATOID ARTHRITIS” (priority 2006, published 2012)
